Like-named read-outs stand apart in the source and are kept apart here.
Biological target: GLP-1 Receptor (Homo sapiens, UniProt P43220)
Test: GLP-1R agonist cAMP stimulation assay
Assay type: cell-based
In short: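 HEK293/CRE-Luc cells stably expressing GLP-1R, 1000 cells/well in DPBS with 0.5 mM IBMX and 0.1% BSA, exposed to ½-log compound dilutions 30 min at 37 °C. cAMP measured by HTRF (665/615 nm) after 1 h at room temperature. % activity normalised between vehicle and MAX controls.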

[1] = HEK293/GLP1R/CRE-LUC cells, cAMP dynamic 2 Kit (Cisbio), 30 min incubation at 37° C., read-out: EC50

Sequence of GLP-1 Receptor (P43220 24-463, species assumed): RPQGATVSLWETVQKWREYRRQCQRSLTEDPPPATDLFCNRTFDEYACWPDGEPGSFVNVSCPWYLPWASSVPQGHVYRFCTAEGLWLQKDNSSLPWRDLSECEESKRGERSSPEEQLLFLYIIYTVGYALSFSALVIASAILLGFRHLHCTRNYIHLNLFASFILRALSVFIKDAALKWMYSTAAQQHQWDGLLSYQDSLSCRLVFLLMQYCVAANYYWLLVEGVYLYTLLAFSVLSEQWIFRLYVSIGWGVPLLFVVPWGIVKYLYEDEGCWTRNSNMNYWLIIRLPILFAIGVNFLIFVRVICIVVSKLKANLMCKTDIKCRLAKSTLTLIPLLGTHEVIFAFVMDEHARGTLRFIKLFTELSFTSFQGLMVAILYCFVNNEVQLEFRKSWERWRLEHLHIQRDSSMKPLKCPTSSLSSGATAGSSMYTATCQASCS

Row | Structure (SMILES) | EC50 [1] [nM] | EC50 [nM]
1 | N#Cc1ccc(Cc2cccc(OC3CCN(Cc4nc5cc(-c6nnc(C(F)(F)F)[nH]6)ncc5n4C[C@@H]4CCO4)CC3)n2)c(F)c1 [Compound 190a, 3-fluoro-4-{[6-({1-[(3-{[(2S)-oxetan-2-yl]methyl}-6-[5-(trifluoromethyl)-4H-1,2,4-triazol-3-yl]-3H-imidazo[4,5-c]pyridin-2-yl)methyl]piperidin-4-yl}oxy)pyridin-2-yl]methyl}benzonitrile] | 0.24 | –
2 | N#Cc1nnc(-c2cc3nc(CN4CCC(Oc5nc(Cc6ccc(Cl)cc6F)ncc5F)CC4)n(C[C@@H]4CCO4)c3cn2)[nH]1 [Compound 193a, 5-(2-{[4-({2-[(4-chloro-2-fluorophenyl)methyl]-5-fluoropyrimidin-4-yl}oxy)piperidin-1-yl]methyl}-3-{[(2S)-oxetan-2-yl]methyl}-3H-imidazo[4,5-c]pyridin-6-yl)-4H-1,2,4-triazole-3-carbonitrile] | – | 0.024
3 | Fc1cc(Cl)ccc1Cc1nccc(OC2CCN(Cc3nc4cc(-c5nnn[nH]5)ncc4n3C[C@@H]3CCO3)CC2)n1 [Compound 177a, 2-[(4-chloro-2-fluorophenyl)methyl]-4-({1-[(3-{[(2S)-oxetan-2-yl]methyl}-6-(1H-1,2,3,4-tetrazol-5-yl)-3H-imidazo[4,5-c]pyridin-2-yl)methyl]piperidin-4-yl}oxy)pyrimidine] | 0.13 | –
4 | N#CC1(Cn2c(CN3CCC(Oc4ccnc(Cc5ccc(Cl)cc5)n4)CC3)nc3cc(-c4nnc(C(F)(F)F)[nH]4)ccc32)CC1 [Compound 157, 1-[(2-{[4-({2-[(4-chlorophenyl)methyl]pyrimidin-4-yl}oxy)piperidin-1-yl]methyl}-5-[5-(trifluoromethyl)-4H-1,2,4-triazol-3-yl]-1H-1,3-benzodiazol-1-yl)methyl]cyclopropane-1-carbonitrile] | 1.1 | –
5 | FC(F)(F)c1nnc(-c2ccc3c(c2)nc(CN2CCC(Oc4ccnc(Cc5ccc(Cl)cc5)n4)CC2)n3C[C@H]2CCOC2)[nH]1 [Compound 148a, 2-{[4-({2-[(4-chlorophenyl)methyl]pyrimidin-4-yl}oxy)piperidin-1-yl]methyl}-1-{[(3R)-oxolan-3-yl]methyl}-5-[5-(trifluoromethyl)-4H-1,2,4-triazol-3-yl]-1H-1,3-benzodiazole] | 1.4 | –
6 | Cc1ncc(-c2ccc3c(c2)nc(CN2CCC(Oc4ccnc(Cc5ccc(Cl)cc5)n4)CC2)n3C[C@@H]2CCO2)s1 [Compound 129a, 2-{[4-({2-[(4-chlorophenyl)methyl]pyrimidin-4-yl}oxy)piperidin-1-yl]methyl}-5-(2-methyl-1,3-thiazol-5-yl)-1-{[(2S)-oxetan-2-yl]methyl}-1H-1,3-benzodiazole] | – | 7.6
7 | COC1(Cn2c(CN3CCC(Oc4cccc(Cc5ccc(Cl)cc5F)n4)CC3)nc3cc(-c4nnc(C(F)(F)F)[nH]4)ncc32)CC1 [Compound 192, 2-[(4-chloro-2-fluorophenyl)methyl]-6-{[1-({3-[(1-methoxycyclopropyl)methyl]-6-[5-(trifluoromethyl)-4H-1,2,4-triazol-3-yl]-3H-imidazo[4,5-c]pyridin-2-yl}methyl)piperidin-4-yl]oxy}pyridine] | 4 | –
8 | O=C(Nc1ccc2c(c1)nc(CN1CCC(Oc3ccnc(Cc4ccc(Cl)cc4F)n3)CC1)n2C[C@@H]1CCO1)c1cccnc1 [Compound 111a, N-(2-{[4-({2-[(4-chloro-2-fluorophenyl)methyl]pyrimidin-4-yl}oxy)piperidin-1-yl]methyl}-1-{[(2S)-oxetan-2-yl]methyl}-1H-1,3-benzodiazol-5-yl)pyridine-3-carboxamide] | 0.089 | –
9 | COCCOc1ccc(C(=O)Nc2ccc3c(c2)nc(CN2CCC(Oc4ccnc(Cc5ccc(Cl)cc5F)n4)CC2)n3C[C@@H]2CCO2)cn1 [Compound 115a, N-(2-{[4-({2-[(4-chloro-2-fluorophenyl)methyl]pyrimidin-4-yl}oxy)piperidin-1-yl]methyl}-1-{[(2S)-oxetan-2-yl]methyl}-1H-1,3-benzodiazol-5-yl)-6-(2-methoxyethoxy)pyridine-3-carboxamide] | 2.7 | –
10 | Fc1cc(Cl)ccc1Cc1ncc(F)c(OC2CCN(Cc3nc4cc(-c5nnc(C(F)(F)F)[nH]5)ncc4n3C[C@@H]3CCO3)CC2)n1 [Compound 168a, 2-[(4-chloro-2-fluorophenyl)methyl]-5-fluoro-4-({1-[(3-{[(2S)-oxetan-2-yl]methyl}-6-[5-(trifluoromethyl)-4H-1,2,4-triazol-3-yl]-3H-imidazo[4,5-c]pyridin-2-yl)methyl]piperidin-4-yl}oxy)pyrimidine] | 0.081 | –
11 | COc1cncc(-c2cc3nc(CN4CCC(Oc5cccc(Cc6ccc(Cl)cc6F)n5)CC4)n(C[C@@H]4CCO4)c3cn2)n1 [Compound 187a, 2-(2-{[4-({6-[(4-chloro-2-fluorophenyl)methyl]pyridin-2-yl}oxy)piperidin-1-yl]methyl}-3-{[(2S)-oxetan-2-yl]methyl}-3H-imidazo[4,5-c]pyridin-6-yl)-6-methoxypyrazine] | > 300 | –
12 | Clc1ccc(Cc2nccc(OC3CCN(Cc4nc5cc(-c6nnn[nH]6)ccc5n4C[C@@H]4CCO4)CC3)n2)cc1 [Compound 107a, 2-{[4-({2-[(4-chlorophenyl)methyl]pyrimidin-4-yl}oxy)piperidin-1-yl]methyl}-1-{[(2S)-oxetan-2-yl]methyl}-5-(1H-1,2,3,4-tetrazol-5-yl)-1H-1,3-benzodiazole] | 0.2 | –
13 | O=C(O)c1ccc2c(c1)nc(CN1CCC(Oc3cccc(Cc4ccc(Cl)cc4F)n3)CC1)n2C[C@@H]1CCO1 [Compound 188a, 2-{[4-({6-[(4-chloro-2-fluorophenyl)methyl]pyridin-2-yl}oxy)piperidin-1-yl]methyl}-1-{[(2S)-oxetan-2-yl]methyl}-1H-1,3-benzodiazole-5-carboxylic acid] | 16 | –
14 | Fc1cc(Cl)ccc1Cc1ccc(F)c(OC2CCN(Cc3nc4cc(-c5nnc(C(F)(F)F)[nH]5)ncc4n3C[C@@H]3CCO3)CC2)n1 [Compound 164a, 6-[(4-chloro-2-fluorophenyl)methyl]-3-fluoro-2-({1-[(3-{[(2S)-oxetan-2-yl]methyl}-6-[5-(trifluoromethyl)-4H-1,2,4-triazol-3-yl]-3H-imidazo[4,5-c]pyridin-2-yl)methyl]piperidin-4-yl}oxy)pyridine] | 0.35 | –
15 | COCc1nnc(-c2cc3nc(CN4CCC(Oc5cccc(Cc6ccc(Cl)cc6F)n5)CC4)n(C[C@@H]4CCO4)c3cn2)[nH]1 [Compound 183a, 2-[(4-chloro-2-fluorophenyl)methyl]-6-{[1-({6-[5-(methoxymethyl)-4H-1,2,4-triazol-3-yl]-3-{[(2S)-oxetan-2-yl]methyl}-3H-imidazo[4,5-c]pyridin-2-yl}methyl)piperidin-4-yl]oxy}pyridine] | – | 3.3
16 | CCc1ccc(C(=O)Nc2ccc3c(c2)nc(CN2CCC(Oc4ccnc(Cc5ccc(Cl)cc5F)n4)CC2)n3C[C@@H]2CCO2)cn1 [Compound 114a, N-(2-{[4-({2-[(4-chloro-2-fluorophenyl)methyl]pyrimidin-4-yl}oxy)piperidin-1-yl]methyl}-1-{[(2S)-oxetan-2-yl]methyl}-1H-1,3-benzodiazol-5-yl)-6-ethylpyridine-3-carboxamide] | 1.6 | –
